Reference: US9040545B2, “Heterocyclyl pyrazolopyrimidine analogues as selective JAK inhibitors” (Cellzome Limited, priority 2010, dated 2015)
pIC50: −log10 of the molar value.

Molecular target: T1, Aurora A (Homo sapiens, UniProt O14965)
T1 construct: cell lysates from Jurkat cells (ATCC TIB-152) used; endogenous in cells; host or cells: Jurkat cells (ATCC TIB-152), treated with pervanadate
T1 sequence (O14965 1-403): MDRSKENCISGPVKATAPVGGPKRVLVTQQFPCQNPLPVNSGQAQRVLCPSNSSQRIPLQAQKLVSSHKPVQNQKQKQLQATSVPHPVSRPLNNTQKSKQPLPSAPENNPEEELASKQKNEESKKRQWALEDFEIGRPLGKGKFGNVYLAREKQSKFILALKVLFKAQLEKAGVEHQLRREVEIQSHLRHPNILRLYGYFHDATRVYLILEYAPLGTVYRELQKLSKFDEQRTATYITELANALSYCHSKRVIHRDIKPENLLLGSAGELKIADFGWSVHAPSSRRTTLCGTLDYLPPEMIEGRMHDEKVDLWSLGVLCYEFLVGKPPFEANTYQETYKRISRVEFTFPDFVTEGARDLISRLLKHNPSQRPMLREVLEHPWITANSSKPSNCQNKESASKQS
Assay: Kinobeads assay, Aurora A
Format: binding
Conditions: for pIC50: lysate of pervanadate-treated Jurkat cells, read-out: Inhibition values (IC50) Aur A
Method: The compounds of the present invention as described in the previous examples were tested in a Kinobeads™ assay as described for ZAP-70 (WO-A 2007/137867). Briefly, test compounds (at various concentrations) and the affinity matrix with the immobilized aminopyrido-pyrimidine ligand 24 were added to cell lysate aliquots and allowed to bind to the proteins in the lysate sample. After the incubation time the beads with captured proteins were separated from the lysate. Bound proteins were then eluted and the presence of JAK2 and JAK3 was detected and quantified using specific antibodies in a dot blot procedure and the Odyssey infrared detection system. Dose response curves for individual kinases were generated and IC50 values calculated. Kinobeads™ assays for ZAP-70 (WO-A 2007/137867) and for kinase selectivity profiling (WO-A 2006/134056) have been previously described.
The affinity matrix was washed two times with 15 mL of 1×DP buffer containing 0.2% NP40 (IGEPAL® CA-630, Sigma, #I3021) and then resuspended in 1×DP buffer containing 0.2% NP40 (3% beads slurry).
5×DP buffer 250 mM Tris-HCl pH 7.4, 25% Glycerol, 7.5 mM MgCl2, 750 mM NaCl, 5 mM Na3VO4; filter the 5×DP buffer through a 0.22 μm filter and store in aliquots at −80° C. The 5×DP buffer is diluted with H2O to 1×DP buffer containing 1 mM DTT and 25 mM NaF.
Stock solutions of test compounds were prepared in DMSO. In a 96 well plate 30 μL solution of diluted test compounds at 5 mM in DMSO were prepared. Starting with this solution a 1:3 dilution series (9 steps) was prepared. For control experiments (no test compound) a buffer containing 2% DMSO was used.
Cell lysate (approximately 50 mg protein per plate) was thawed in a water bath at room temperature and then stored on ice. To the thawed cell lysate 1×DP 0.8% NP40 buffer containing protease inhibitors (1 tablet for 25 mL buffer; EDTA-free protease inhibitor cocktail; Roche Diagnostics 1873580) was added in order to reach a final protein concentration of 10 mg/mL total protein. The diluted cell lysate was stored on ice. Mixed Molt4/Ramos lysate was prepared by combining one volume of Molt4 lysate and two volumes of Ramos lysate (ratio 1:2).
To a 96 well filter plate (Multiscreen HTS, BV Filter Plates, Millipore #MSBVN1250) were added per well: 100 μL affinity matrix (3% beads slurry), 3 μL of compound solution, and 50 μL of diluted lysate. Plates were sealed and incubated for 3 hours in a cold room on a plate shaker (Heidolph tiramax 1000) at 750 rpm. Afterwards the plate was washed 3 times with 230 μL washing buffer (1×DP 0.4% NP40). The filter plate was placed on top of a collection 1 plate (Greiner bio-one, PP-microplate 96 well V-shape, 65120) and the beads were then eluted with 20 μL of sample buffer (100 mM Tris, pH 7.4, 4% SDS, 0.00025% bromophenol blue, 20% glycerol, 50 mM DTT). The eluate was frozen quickly at −80° C. and stored at −20° C.
The kinases in the eluates were detected and quantified by spotting on nitrocellulose membranes and using a first antibody directed against the kinase of interest and a fluorescently labelled secondary antibody (anti-rabbit IRDye™ antibody 800 (Licor, #926-32211). The Odyssey Infrared Imaging system from LI-COR Biosciences (Lincoln, Nebr., USA) was operated according to instructions provided by the manufacturer (Schutz-Geschwendener et al, 2004. Quantitative, two-color Western blot detection with infrared fluorescence. Published May 2004 by LI-COR Biosciences, www.licor.com).
After spotting of the eluates the nitrocellulose membrane (BioTrace NT; PALL, #BTNT30R) was first blocked by incubation with Odyssey blocking buffer (LICOR, 927-40000) for 1 hour at room temperature. Blocked membranes were then incubated for 16 hours at the temperature shown in Table 5 with the first antibody diluted in Odyssey blocking buffer (LICOR #927-40000). Afterwards the membrane was washed twice for 10 minutes with PBS buffer containing 0.2% Tween 20 at room temperature. […]

| JAK3/AurA Fold Selectivity | pIC50 | Compound |
| --- | --- | --- |
| 10-50 Fold | 6.00 to 7.00 | Cn1cc(Nc2ncc3cnn(Cc4cccc(N5CCNCC5)c4)c3n2)cn1 [Example 22, N-(1-Methyl-1H-pyrazol-4-yl)-1-(3-(piperazin-1-yl)benzyl)-1H-pyrazolo[3,4-d]pyrimidin-6-amine] |
| 10-50 Fold | 6.00 to 7.00 | Cn1cc(Nc2ncc3cnn(Cc4cccc(CN5CCOCC5)c4)c3n2)cn1 [Example 7, N-(1-Methyl-1H-pyrazol-4-yl)-1-(3-(morpholinomethyl)benzyl)-1H-pyrazolo[3,4-d]pyrimidin-6-amine] |
| 10-50 Fold | 6.00 to 7.00 | Cn1cc(Nc2ncc3cnn(Cc4cccc(C5CCOCC5)c4)c3n2)cn1 [Example 9, N-(1-Methyl-1H-pyrazol-4-yl)-1-(3-(tetrahydro-2H-pyran-4-yl)benzyl)-1H-pyrazolo[3,4-d]pyrimidin-6-amine] |
| 3-10 Fold | > 7.00 | N#CCCn1cc(Nc2ncc3cnn(Cc4cc(F)cc(N5CCOCC5=O)c4)c3n2)cn1 [Example 107, 3-(4-((1-(3-fluoro-5-(3-oxomorpholino)benzyl)-1H-pyrazolo[3,4-d]pyrimidin-6-yl)amino)-1H-pyrazol-1-yl)propanenitrile] |
| 10-50 Fold | 6.00 to 7.00 | Cn1cc(Nc2ncc3cnn(Cc4cccc(N5CC6(COC6)C5)c4)c3n2)cn1 [Example 89, 1-(3-(2-oxa-6-azaspiro[3.3]heptan-6-yl)benzyl)-N-(1-methyl-1H-pyrazol-4-yl)-1H-pyrazolo[3,4-d]pyrimidin-6-amine] |
| 10-50 Fold | 6.00 to 7.00 | NC(=O)CCn1cc(Nc2ncc3cnn(Cc4cccc(N5CCOCC5)c4)c3n2)cn1 [Example 14, 3-(4-((1-(3-Morpholinobenzyl)-1H-pyrazolo[3,4-d]pyrimidin-6-yl)amino)-1H-pyrazol-1-yl)propanamide] |
| 10-50 Fold | 6.00 to 7.00 | O=C(c1cc(F)c(F)c(Cn2ncc3cnc(Nc4cnn(CCO)c4)nc32)c1F)N1CCOCC1 [Example 111, morpholino(2,4,5-trifluoro-3-((6-((1-(2-hydroxyethyl)-1H-pyrazol-4-yl)amino)-1H-pyrazolo[3,4-d]pyrimidin-1-yl)methyl)phenyl)methanone] |
| 3-10 Fold | 6.00 to 7.00 | FC(F)Cn1cc(Nc2ncc3cnn(Cc4cccc(N5CCOCC5)c4)c3n2)cn1 [Example 23, N-(1-(2,2-Difluoroethyl)-1H-pyrazol-4-yl)-1-(3-morpholinobenzyl)-1H-pyrazolo[3,4-d]pyrimidin-6-amine] |
| 10-50 Fold | 6.00 to 7.00 | Cn1cc(Nc2ncc3cnn(Cc4cccc(N5CCOCC5)n4)c3n2)cn1 [Example 3, N-(1-Methyl-1H-pyrazol-4-yl)-1-((6-morpholinopyridin-2-yl)methyl)-1H-pyrazolo[3,4-d]pyrimidin-6-amine] |
| >50 Fold | ≤ 5.00 | OCCn1cc(Nc2ncc3cnn(Cc4cc(F)cc(N5CCNCC5)c4F)c3n2)cn1 [Example 96, 2-(4-((1-(2,5-difluoro-3-(piperazin-1-yl)benzyl)-1H-pyrazolo[3,4-d]pyrimidin-6-yl)amino)-1H-pyrazol-1-yl)ethanol] |
| 10-50 Fold | 5.00 to 6.00 | Cn1cc(Nc2ncc3cnn(Cc4cccc(-c5cn[nH]c5)c4)c3n2)cn1 [Example 118, 1-(3-(1H-pyrazol-4-yl)benzyl)-N-(1-methyl-1H-pyrazol-4-yl)-1H-pyrazolo[3,4-d]pyrimidin-6-amine] |
| 10-50 Fold | 6.00 to 7.00 | Cn1cc(Nc2ncc3cnn(Cc4cccc(N5CCS(=O)(=O)CC5)c4)c3n2)cn1 [Example 25, 4-(3-((6-((1-Methyl-1H-pyrazol-4-yl)amino)-1H-pyrazolo[3,4-d]pyrimidin-1-yl)methyl)phenyl)thiomorpholine 1,1-dioxide] |
| 10-50 Fold | 6.00 to 7.00 | O=C(CCn1cc(Nc2ncc3cnn(Cc4cccc(N5CCOCC5)c4)c3n2)cn1)N1CCCCC1 [Example 20, 3-(4-((1-(3-Morpholinobenzyl)-1H-pyrazolo[3,4-d]pyrimidin-6-yl)amino)-1H-pyrazol-1-yl)-1-(piperidin-1-yl)propan-1-one] |
| 10-50 Fold | 5.00 to 6.00 | CC(CN(C)C)Cn1cc(Nc2ncc3cnn(Cc4cccc(N5CCOCC5)c4)c3n2)cn1 (stereo not shown) [Example 32, N-(1-(3-(Dimethylamino)-2-methylpropyl)-1H-pyrazol-4-yl)-1-(3-morpholinobenzyl)-1H-pyrazolo[3,4-d]pyrimidin-6-amine] |
| >50 Fold | 5.00 to 6.00 | Cn1cc(Nc2ncc3cnn(Cc4c(F)c(F)cc(N5CCOCC5)c4F)c3n2)cn1 [Example 17, N-(1-Methyl-1H-pyrazol-4-yl)-1-(2,3,6-trifluoro-5-morpholinobenzyl)-1H-pyrazolo[3,4-d]pyrimidin-6-amine] |
| 10-50 Fold | 5.00 to 6.00 | Cn1cc(Nc2ncc3cnn(Cc4cc(F)cc(-c5cnn(C)c5)c4)c3n2)cn1 [Example 125, 1-(3-fluoro-5-(1-methyl-1H-pyrazol-4-yl)benzyl)-N-(1-methyl-1H-pyrazol-4-yl)-1H-pyrazolo[3,4-d]pyrimidin-6-amine] |
| 3-10 Fold | 6.00 to 7.00 | C[C@@H]1COCCN1c1cccc(Cn2ncc3cnc(Nc4cnn(C)c4)nc32)n1 [Example 1, (R)—N-(1-Methyl-1H-pyrazol-4-yl)-1-((6-(3-methylmorpholino)pyridin-2-yl)methyl)-1H-pyrazolo[3,4-d]pyrimidin-6-amine] |
| 10-50 Fold | 6.00 to 7.00 | CCn1cc(-c2cccc(Cn3ncc4cnc(Nc5cnn(C)c5)nc43)c2)cn1 [Example 116, 1-(3-(1-ethyl-1H-pyrazol-4-yl)benzyl)-N-(1-methyl-1H-pyrazol-4-yl)-1H-pyrazolo[3,4-d]pyrimidin-6-amine] |
| 10-50 Fold | 6.00 to 7.00 | O=C(CCn1cc(Nc2ncc3cnn(Cc4cccc(N5CCOCC5)c4)c3n2)cn1)NC1CC1 [Example 35, N-Cyclopropyl-3-(4-((1-(3-morpholinobenzyl)-1H-pyrazolo[3,4-d]pyrimidin-6-yl)amino)-1H-pyrazol-1-yl)propanamide] |
| 10-50 Fold | > 7.00 | O=C1COCCN1c1cc(F)cc(Cn2ncc3cnc(Nc4cnn(C5CCNCC5)c4)nc32)c1 [Example 102, 4-(3-fluoro-5-((6-((1-(piperidin-4-yl)-1H-pyrazol-4-yl)amino)-1H-pyrazolo[3,4-d]pyrimidin-1-yl)methyl)phenyl)morpholin-3-one] |
